The record followed here is ChEMBL document CHEMBL4265942, “Four new antitumor metabolites isolated from a mutant 3-f-31 strain derived from Penicillium purpurogenum G59” (Eur J Med Chem, 2018).

In one series the test system is L929. In words: Cytotoxicity against mouse L929 cells assessed as inhibition of cell growth after 72 hrs by MTT assay. It counts as cell-based. The conditions noted are these: L929, 72 h. Background: Tetrazolium assays rely on reduction of a dye to a coloured formazan, in cell work by metabolically active cells.
Series [1] relates to A549. Nature of the series: Antiproliferative activity against human A549 cells assessed as inhibition of cell growth after 72 hrs by sulforhodamine B assay. It counts as functional, cell-based. The conditions noted are these: A549, 72 h.
Series [2] has as its system HeLa. In words: Antiproliferative activity against human HeLa cells assessed as inhibition of cell growth after 72 hrs by sulforhodamine B assay. It counts as functional, cell-based. (The SRB assay estimates cell density from bound dye.)
For series [3], the system named is MCF7. Nature of the series: Antiproliferative activity against human MCF7 cells assessed as inhibition of cell growth after 72 hrs by sulforhodamine B assay. The note with it: MCF7, 72 h. It counts as functional, cell-based.
Series [4] has as its system HCT-116. Nature of the series: Antiproliferative activity against human HCT116 cells assessed as inhibition of cell growth after 72 hrs by sulforhodamine B assay. The conditions noted are these: HCT-116, 72 h. It counts as functional, cell-based.
Series [5] deals with HepG2. In words: Antiproliferative activity against human HepG2 cells assessed as inhibition of cell growth after 72 hrs by sulforhodamine B assay. It counts as functional, cell-based. The conditions noted are these: HepG2, 72 h.
Series [6] relates to NCI-H1975. In words: Antiproliferative activity against human NCI-H1975 cells assessed as inhibition of cell growth after 72 hrs by sulforhodamine B assay. It counts as functional, cell-based. The note with it: NCI-H1975, 72 h.
The test system of series [7] is HL-60. In words: Antiproliferative activity against human HL60 cells assessed as inhibition of cell growth after 72 hrs by MTT assay. It counts as functional, cell-based. The note with it: HL-60, 72 h.
Series [8] has as its system K562. Nature of the series: Antiproliferative activity against human K562 cells assessed as inhibition of cell growth after 72 hrs by MTT assay. It counts as functional, cell-based. The conditions noted are these: K562, 72 h.
Series [9] has as its system LS180. Nature of the series: Antiproliferative activity against human LS180 cells assessed as inhibition of cell growth after 72 hrs by sulforhodamine B assay. The conditions noted are these: LS180, 72 h. It counts as functional, cell-based.
The subject of series [10] is SW480. In words: Antiproliferative activity against human SW480 cells assessed as inhibition of cell growth after 72 hrs by sulforhodamine B assay. It counts as functional, cell-based. The note with it: SW480, 72 h.
For series [11], the system named is HT-29. Nature of the series: Antiproliferative activity against human HT-29 cells assessed as inhibition of cell growth after 72 hrs by sulforhodamine B assay. It counts as functional, cell-based. The conditions noted are these: HT-29, 72 h.
Series [12] relates to PC-3. In words: Antiproliferative activity against human PC3 cells assessed as inhibition of cell growth after 72 hrs by sulforhodamine B assay. It counts as functional, cell-based. The note with it: PC-3, 72 h.
In series [13] the test system is BXPC-3. In words: Antiproliferative activity against human BxPC3 cells assessed as inhibition of cell growth after 72 hrs by sulforhodamine B assay. The note with it: BXPC-3, 72 h. It counts as functional, cell-based.
The test system of series [14] is PANC-1. Nature of the series: Antiproliferative activity against human PANC1 cells assessed as inhibition of cell growth after 72 hrs by sulforhodamine B assay. It counts as functional, cell-based. The note with it: PANC-1, 72 h.
For series [15], the system named is A549. Nature of the series: Antiproliferative activity against human A549 cells assessed as inhibition of cell growth at 1 uM after 72 hrs by sulforhodamine B assay relative to control. It counts as functional. The note with it: A549, 72 h.
Series [16] relates to HeLa. Nature of the series: Antiproliferative activity against human HeLa cells assessed as inhibition of cell growth at 1 uM after 72 hrs by sulforhodamine B assay relative to control. It counts as functional.
Series [17] deals with MCF7. In words: Antiproliferative activity against human MCF7 cells assessed as inhibition of cell growth at 1 uM after 72 hrs by sulforhodamine B assay relative to control. It counts as functional. The note with it: MCF7, 72 h.
Series [18] deals with HCT-116. Nature of the series: Antiproliferative activity against human HCT116 cells assessed as inhibition of cell growth at 1 uM after 72 hrs by sulforhodamine B assay relative to control. It counts as functional. The note with it: HCT-116, 72 h.
Series [19] concerns HepG2. In words: Antiproliferative activity against human HepG2 cells assessed as inhibition of cell growth at 1 uM after 72 hrs by sulforhodamine B assay relative to control. It counts as functional. The note with it: HepG2, 72 h.
Series [20] deals with NCI-H1975. In words: Antiproliferative activity against human NCI-H1975 cells assessed as inhibition of cell growth at 1 uM after 72 hrs by sulforhodamine B assay relative to control. It counts as functional. The note with it: NCI-H1975, 72 h.
Series [21] relates to HL-60. In words: Antiproliferative activity against human HL60 cells assessed as inhibition of cell growth at 1 uM after 72 hrs by MTT assay relative to control. It counts as functional. The conditions noted are these: HL-60, 72 h.
Series [22] has as its system K562. In words: Antiproliferative activity against human K562 cells assessed as inhibition of cell growth at 1 uM after 72 hrs by MTT assay relative to control. It counts as functional. The note with it: K562, 72 h.
The test system of series [23] is LS180. In words: Antiproliferative activity against human LS180 cells assessed as inhibition of cell growth at 1 uM after 72 hrs by sulforhodamine B assay relative to control. It counts as functional. The conditions noted are these: LS180, 72 h.
In series [24] the test system is SW480. In words: Antiproliferative activity against human SW480 cells assessed as inhibition of cell growth at 1 uM after 72 hrs by sulforhodamine B assay relative to control. It counts as functional. The conditions noted are these: SW480, 72 h.
Series [25] has as its system HT-29. Nature of the series: Antiproliferative activity against human HT-29 cells assessed as inhibition of cell growth at 1 uM after 72 hrs by sulforhodamine B assay relative to control. It counts as functional. The note with it: HT-29, 72 h.
Series [26] relates to PC-3. Nature of the series: Antiproliferative activity against human PC3 cells assessed as inhibition of cell growth at 1 uM after 72 hrs by sulforhodamine B assay relative to control. It counts as functional. The note with it: PC-3, 72 h.
In series [27] the test system is BXPC-3. Nature of the series: Antiproliferative activity against human BxPC3 cells assessed as inhibition of cell growth at 1 uM after 72 hrs by sulforhodamine B assay relative to control. It counts as functional. The note with it: BXPC-3, 72 h.
For series [28], the system named is PANC-1. In words: Antiproliferative activity against human PANC1 cells assessed as inhibition of cell growth at 1 uM after 72 hrs by sulforhodamine B assay relative to control. The note with it: PANC-1, 72 h. It counts as functional.
Series [29] relates to HCT-116. Nature of the series: Antitumor activity against human HCT116 cells xenografted in BALB/c nu/nu mouse assessed as tumor growth inhibition at 5 mg/kg, iv administered every other day for 14 days measured 24 hrs post last dose relative to control. It counts as functional. The conditions noted are these: HCT-116, iv, read-out: TGI. In general terms: Xenograft models place foreign cells or tissue in a host animal.

Another series has as its system Mus musculus. Nature of the series: Toxicity in BALB/c nu/nu mouse xenografted with human HCT116 cells assessed as spleen index at 5 mg/kg, iv administered every other day for 14 days measured 24 hrs post last dose (reference value: 0.41 +/- 0.08%). The conditions noted are these: in vivo. It counts as organism-based.
The subject of series [30] is HCT-116. In words: Upregulation of p53 expression in human HCT116 cells at 12.5 ug/ml after 48 hrs by Western blot analysis. It counts as functional, cell-based.
Series [31] deals with HCT-116. In words: Down regulation of survivin expression in human HCT116 cells at 12.5 ug/ml after 48 hrs by Western blot analysis. It counts as functional, cell-based.

Structures can show the parent of a compound that is named as a salt. Calls of active or inactive are those of the source. No cut-off for these calls is given here. A value given as a limit tells only on which side of the number the result lay.

Consider `CCCCCC[C@@H](C)C[C@@H](C)/C=C/C(N)=O`, for which the IC50 is 13.5 µM with L929; 59.4 µM in the series with A549 [1]; 78.3 µM in the series on HeLa [2]; 60.6 µM in the series on MCF7 [3]; over 100 µM in the series with HCT-116 [4]; 78.3 µM in the series on HepG2 [5]. Further, the IC50 stood at 53.9 µM with NCI-H1975 [6]; 51.5 µM with HL-60 [7]; 62.5 µM in the series on K562 [8]; 64.5 µM with LS180 [9]; 55 µM in the series on SW480 [10]; 85.4 µM in the series on HT-29 [11]. Besides, the half-inhibitory concentration (IC50) in the series on PC-3 [12] was over 100 µM; in the series on BXPC-3 [13], 67.7 µM; with PANC-1 [14], 82.6 µM.

`COc1cccc2c1C(=O)c1c(O)c3c(c(O)c1C2=O)C[C@@](O)(C(=O)CO)C[C@@H]3O[C@H]1C[C@H](N)[C@H](O)[C@H](C)O1` [DOXORUBICIN HYDROCHLORIDE]: the inhibition at 1 µM in the series on A549 [15], with HeLa [16], in the series on MCF7 [17], in the series on HCT-116 [18], in the series on HepG2 [19] and in the series on NCI-H1975 [20] was 70 to 98% throughout. For the same compound, the inhibition at 1 µM with HL-60 [21], in the series with K562 [22], with LS180 [23], in the series on SW480 [24], with HT-29 [25] and with PC-3 [26] was 70 to 98% each time. Also, the inhibition at 1 µM in the series on BXPC-3 [27] and with PANC-1 [28] was 70 to 98% each time.

With `CC(=O)O[C@@]12CO[C@@H]1C[C@H](O)[C@@]1(C)C(=O)[C@H](O)C3=C(C)[C@@H](OC(=O)[C@H](O)[C@@H](NC(=O)OC(C)(C)C)c4ccccc4)C[C@@](O)([C@@H](OC(=O)c4ccccc4)[C@H]21)C3(C)C` [DOCETAXEL ANHYDROUS], in the series on HCT-116 [29], the inhibition in vivo at 5 mg/kg turned out to be 87.4%. Also, the Activity_index with Mus musculus is on record as 0.25.

With `COc1cc([C@@H]2c3cc4c(cc3[C@@H](O[C@@H]3O[C@@H]5CO[C@@H](C)O[C@H]5[C@H](O)[C@H]3O)[C@H]3COC(=O)[C@H]23)OCO4)cc(OC)c1O`, the result in the series on HCT-116 [30] and in the series with HCT-116 [31] was Active.

The term IC50 denotes the concentration at which inhibition is half-maximal. Usually inhibition stands for the drop in the measured response relative to a control, in per cent.
